System: C57BL/6 mice, transient middle cerebral artery occlusion (tMCAO)
Test: mouse tMCAO cerebral stroke model (Embodiment 69)
Assay type: in vivo
Conditions: 3 mg/kg tail vein injection 3 h after reperfusion
Source text: After isoflurane inhalation gas anesthesia of 22-25 g male C57BL/6 mice, the fiber-optic probes of a laser Doppler flowmeter were fixed to the skull of the mice with glue for monitoring the cerebral blood flow of the middle cerebral artery (MCA) supplying cortex. The mice were fixed in the supine position, and the middle of the neck was dehaired and routinely sterilized with 75% alcohol. An approximately 1.5 cm incision was made in the middle of the neck, and the skin of the neck was incised, and the muscle and fascia were separated along the inner edge of the sternocleidomastoideole; the right carotid artery sheath was bluntly separated to expose the right common carotid artery (CCA), external carotid artery (ECA), and internal carotid artery (ICA); after the surgical area was exposed satisfactorily, the CCA and ICA were temporarily clipped with arterial clips, and a small incision was made at the proximal end of the ECA with microsurgical scissors, and a nylon monofilament suture was inserted from the small incision along the ECA, and gently pushed into the intracranial area in the direction of the ICA for about 11.5±0.5 mm, blocking the beginning of the middle cerebral artery. Only the animals whose blood flow values decreased to 20% of the basic value were selected according to the blood flow data monitored by the flowmeter. After 90 minutes of ischemia, the monofilament sutures were gently withdrawn out, the arterial stumps were tied tightly, the surgical wounds were inspected, the bleeding was thoroughly stopped, a small amount of penicillin powder was sprinkled locally to prevent infection, and the subcutaneous tissues and the skin were sutured layer by layer, thus completing the ischemia reperfusion injury model. A heating plate was used to maintain the body temperature of the animals during surgery. After completion of the surgery, the sutured mice were placed in a heat preservation and humidification box until the mice recovered activities. Animals in the sham-operated group were subjected to the same surgical procedure but without middle artery occlusion.
Clean-grade male C57BL/6 mice were randomly divided into five groups, namely, the sham-operated group, the group of the positive control drug Edaravone(3 mg/kg), and the 3 mg/kg dose group of compounds II-1, II-23 and III-1.
The mice were subjected to tail vein injections of Edaravone, II-1, II-23, and III-1 respectively 3 h after modeling and reperfusion; the sham-operated group was injected with an equal volume of saline, and II-1, II-23, III-1, and Edaravone were dissolved in 0.9% saline solution. Neurological function scores and TTC staining of mice were performed 24 h after ischemia-reperfusion, and the results are shown in FIGS. 6, 7 and 8.
The mice were decapitated 24 h after ischemia-reperfusion, the coronal planes of the brains were cut into brain slices of about 2 mm thickness uniformly. The brain slices were placed in 0.25% 2,3,5-triphenyltetrazolium chloride (TTC) solution, incubated at 37° C. Celsius for 30 minutes away from light, stained, and fixed in 4% paraformaldehyde neutral buffer (pH 7.4) overnight. The processed brain slices were photographed using a macro camera, and Image J image analysis software was used to calculate and count the cerebral infarct volume, and the measured results are shown in FIG. 7. The formula for calculating the percentage of infarct volume was (sum of the left uninfarcted area −sum of the right uninfarcted area)/sum of the left uninfarcted area×100%.
According to the five-level, four-point standard of score, the mortality and neuromotor dysfunction scores of each group of mice were performed, and the results are shown in FIG. 8. […]

CCN(CC)C(=O)c1cc(C(=O)c2ccccc2)n2cccc2c1 [II-23, 5-Benzoyl-N, N-diethylindolizine-7-formamide]
area of cerebral infarction caused by tMCAO (TTC staining 24 h after ischemia-reperfusion): significantly reduced | neuromotor dysfunction scores caused by tMCAO (scored 24 h after ischemia-reperfusion): significantly reduced
